# Test results reported in patent US8163788B2, “Low-molecular inhibitors of cytohesin-family guanine nucleotide exchange factors” (Rheinische Friedrich-Wilhelms Universitat Bonn, priority 2004, dated 2012).
# Columns and labels:
# Type in all cases: cell-based
# [1] = test system: human dendritic cells; assay: migration (chemotaxis) of dendritic cells in modified Boyden chambers on ICAM-1; settings: 1 μM, 10 μM or 15 μM, 96 hours; chemokines CCL19 or CXCL12; FIG. 5
# Method: (§1) Dendritic cells were produced in vitro by means of differentiation factors (IL-4 and GM-CSF) from blood monocytes that were isolated from peripheral mononuclear cells (PBMC) by Ficoll density gradient centrifugation from the human blood of anonymous donors.
# The blood was mixed at a ratio of 1:1 with PBS (KCl 0.2 g/l, KH2PO4 0.2 g/l, NaCl 8 g/l, Na2HPO4 1.15 g/l, PAA, Cölbe)/2 mM EDTA and layered onto half the volume of Ficoll. Centrifugation was carried out at 300×g, 30 minutes with no brake. After the centrifugation, a centered white band appeared which contained the PBMC. This was picked up with PBS/2 mM EDTA, filled up to 50 ml and subjected to several washing steps at 640×g, 500×g, 400×g, 300×g and 200×g. Subsequently, the cells were picked up in a titer of 5×10^6/ml in “VLE-RPMI+/+”-medium (Biochrom, Berlin, containing 10% fetal calf serum (FCS) and 1% penicillin/streptomycin) and incubated for 90 minutes in an incubator at 37° C. [98.6° F.] and 5% CO2. During this time, the monocytes adhere to the bottom of the culture dish. […]
# (§2) The quantitative analysis of the cell migration was carried out in modified Boyden chambers consisting of a 24-hole plate into which the Transwell® filters with a 5 μm pore size had been placed. […] [98.6° F.] and 5% CO2 in the incubator and subsequently, the number of cells that had migrated into the lower chamber in the direction of the chemokine was determined. […]
# [2] = test system: Peripheral blood lymphocytes; assay: cytotoxicity by propidium iodide (PI) flow cytometry; settings: 50 nM to 50 μM
# Method: The cytotoxicity of the compound according to Formula (9) was determined by means of propidium iodide (PI) employing flow cytometry. PI is a DNA stain that cannot penetrate into living cells. The experiments were carried out in an incubator at 37° C. [98.6° F.] and 5% CO2.
# Peripheral blood lymphocytes were incubated with concentrations of 50 nM, 100 nM, 1 μM, 5 μM, 20 μM or 50 μM of the compound according to Formula (9) in “VLE-RPMI+/+” (Biochrom). The DMSO concentration per batch was 0.5%. A control batch contained 0.5% DMSO. After 2 hours, 24 hours and 72 hours, cells were removed and incubated with 2 μg/ml of PI for 5 minutes. The cells were centrifuged at 200×g for 8 minutes, washed with PBS, centrifuged again and analyzed in a flow cytometer (Beckmann Coulter, Krefeld).
# [3] = test system: human dendritic cells; assay: adhesion of dendritic cells to the substrate ICAM-1; settings: 1 μM, 10 μM or 15 μM, 96 hours; stimulation with PMA or MEM-48; FIG. 4
# Method: as §1
# The blood was mixed at a ratio of 1:1 with PBS (KCl 0.2 g/l, KH2PO4 0.2 g/l, NaCl 8 g/l, Na2HPO4 1.15 g/l, PAA, Cölbe)/2 mM EDTA and layered onto half the volume of Ficoll. Centrifugation was carried out at 300×g, 30 minutes with no brake. After the centrifugation, a centered white band appeared which contained the PBMC. This was picked up with PBS/2 mM EDTA, filled up to 50 ml and subjected to several washing steps at 640×g, 500×g, 400×g, 300×g and 200×g. […]
# as §2
# Under corresponding conditions, the adhesion was determined after stimulation with phorbolester (PMA, 50 ng/ml, Sigma, Taufkirchen) or anti-beta-2 integrin antibodies MEM-48 (5 μg/ml, Vaclav Horeijsi, Czech Academy of Sciences Prague). […]
structure (smiles),measurement,setting,value
COc1nc(-c2ccc3c(c2)OCO3)n(-c2ccc(NC(=O)CSc3ccccc3)cc2)n1 [Compound 9],inhibition of the migration of dendritic cells on the substrate ICAM-1,[1],concentration-dependent inhibition
same,percentage of PI-positive (dead) cells,"[2]; 2 hours, 24 hours and 72 hours",did not rise in a concentration-dependent or time-dependent manner
same,cytotoxicity,"[2]; conclusion from PI flow cytometry, up to 72 hours",no cytotoxicity or at least no clearly detectable cytotoxicity
same,inhibition of the adhesion of dendritic cells on the substrate ICAM-1,[3],concentration-dependent inhibition
